Measured values from the NIST ThermoML archive (doi:10.1021/acs.jced.8b00132).
Values joined by “and” are separate entries in the source; they are usually repeats but may differ in a detail not shown here. Equal values may be shown once. ± gives the expanded uncertainty stated by the source.

Conditions: transient hot wire

O=C(C(F)(F)C(F)(F)F)C(F)(C(F)(F)F)C(F)(F)F [dodecafluoro-2-methylpentan-3-one]
thermal conductivity (302.17 K, 68802 kPa, Liquid): 0.07801 ± 0.0016 W/m/K | thermal conductivity (302.17 K, 68805 kPa, Liquid): 0.07819 ± 0.0016 W/m/K | thermal conductivity (302.18 K, 185 kPa, Liquid): 0.05684 ± 0.0012 W/m/K | thermal conductivity (302.19 K, 184 kPa, Liquid): 0.05683 ± 0.0012 W/m/K | thermal conductivity (302.19 K, 38646 kPa, Liquid): 0.07042 ± 0.0014 W/m/K | thermal conductivity (302.19 K, 38653 kPa, Liquid): 0.07047 ± 0.0014 W/m/K | thermal conductivity (302.2 K, 4505 kPa, Liquid): 0.05895 ± 0.0012 W/m/K | thermal conductivity (302.2 K, 4509 kPa, Liquid): 0.05896 ± 0.0012 W/m/K | thermal conductivity (302.2 K, 22376 kPa, Liquid): 0.06575 ± 0.0014 W/m/K | thermal conductivity (302.2 K, 22378 kPa, Liquid): 0.06574 ± 0.0014 W/m/K | thermal conductivity (302.21 K, 181 kPa, Liquid): 0.05683 ± 0.0012 W/m/K and 0.05685 ± 0.0012 W/m/K | thermal conductivity (302.21 K, 9730 kPa, Liquid): 0.06078 ± 0.0013 W/m/K | thermal conductivity (302.21 K, 9731 kPa, Liquid): 0.06057 ± 0.0013 W/m/K | thermal conductivity (302.22 K, 29975 kPa, Liquid): 0.06769 ± 0.0014 W/m/K and 0.06766 ± 0.0014 W/m/K | thermal conductivity (302.23 K, 38 kPa, Gas): 0.01171 ± 0.001 W/m/K | thermal conductivity (302.24 K, 34 kPa, Gas): 0.01182 ± 0.0014 W/m/K | thermal conductivity (302.24 K, 36 kPa, Gas): 0.01189 ± 0.00074 W/m/K | thermal conductivity (302.25 K, 34 kPa, Gas): 0.01189 ± 0.0014 W/m/K | thermal conductivity (302.26 K, 4429 kPa, Liquid): 0.05855 ± 0.0012 W/m/K | thermal conductivity (302.26 K, 4432 kPa, Liquid): 0.05857 ± 0.0012 W/m/K | thermal conductivity (302.26 K, 15648 kPa, Liquid): 0.06339 ± 0.0013 W/m/K | thermal conductivity (302.26 K, 22430 kPa, Liquid): 0.06528 ± 0.0014 W/m/K | thermal conductivity (302.27 K, 15647 kPa, Liquid): 0.06339 ± 0.0013 W/m/K | thermal conductivity (302.27 K, 22437 kPa, Liquid): 0.06518 ± 0.0013 W/m/K | thermal conductivity (302.29 K, 121 kPa, Liquid): 0.05692 ± 0.0012 W/m/K | thermal conductivity (302.3 K, 121 kPa, Liquid): 0.057 ± 0.0012 W/m/K | thermal conductivity (302.31 K, 92 kPa, Liquid): 0.05649 ± 0.0012 W/m/K | thermal conductivity (302.31 K, 97 kPa, Liquid): 0.05641 ± 0.0012 W/m/K | thermal conductivity (302.35 K, 9934 kPa, Liquid): 0.0612 ± 0.0013 W/m/K | thermal conductivity (302.35 K, 9940 kPa, Liquid): 0.06118 ± 0.0013 W/m/K | thermal conductivity (302.46 K, 4504 kPa, Liquid): 0.05889 ± 0.0012 W/m/K | thermal conductivity (302.47 K, 4505 kPa, Liquid): 0.05889 ± 0.0012 W/m/K | thermal conductivity (302.48 K, 184 kPa, Liquid): 0.05681 ± 0.0012 W/m/K | thermal conductivity (302.49 K, 184 kPa, Liquid): 0.05679 ± 0.0012 W/m/K | thermal conductivity (302.5 K, 181 kPa, Liquid): 0.05679 ± 0.0012 W/m/K and 0.05678 ± 0.0012 W/m/K | thermal conductivity (302.52 K, 15868 kPa, Liquid): 0.06291 ± 0.0013 W/m/K | thermal conductivity (302.53 K, 15872 kPa, Liquid): 0.06281 ± 0.0013 W/m/K | thermal conductivity (302.54 K, 68548 kPa, Liquid): 0.07804 ± 0.0016 W/m/K | thermal conductivity (302.54 K, 68549 kPa, Liquid): 0.07799 ± 0.0016 W/m/K | thermal conductivity (302.57 K, 121 kPa, Liquid): 0.05687 ± 0.0012 W/m/K and 0.05695 ± 0.0012 W/m/K | thermal conductivity (302.58 K, 58446 kPa, Liquid): 0.0756 ± 0.0015 W/m/K | thermal conductivity (302.59 K, 58445 kPa, Liquid): 0.07563 ± 0.0015 W/m/K | thermal conductivity (302.6 K, 34 kPa, Gas): 0.01198 ± 0.0011 W/m/K | thermal conductivity (302.61 K, 36 kPa, Gas): 0.01183 ± 0.0016 W/m/K | thermal conductivity (302.61 K, 38 kPa, Gas): 0.01193 ± 0.00074 W/m/K | thermal conductivity (302.61 K, 68790 kPa, Liquid): 0.07804 ± 0.0016 W/m/K | thermal conductivity (302.61 K, 68801 kPa, Liquid): 0.07795 ± 0.0016 W/m/K | thermal conductivity (302.63 K, 48154 kPa, Liquid): 0.07294 ± 0.0015 W/m/K | thermal conductivity (302.63 K, 48162 kPa, Liquid): 0.07285 ± 0.0015 W/m/K | thermal conductivity (302.65 K, 15984 kPa, Liquid): 0.06295 ± 0.0013 W/m/K | thermal conductivity (302.65 K, 15986 kPa, Liquid): 0.06304 ± 0.0013 W/m/K | thermal conductivity (302.68 K, 38648 kPa, Liquid): 0.07035 ± 0.0014 W/m/K | thermal conductivity (302.69 K, 38638 kPa, Liquid): 0.07035 ± 0.0014 W/m/K | thermal conductivity (302.72 K, 9724 kPa, Liquid): 0.06082 ± 0.0013 W/m/K | thermal conductivity (302.72 K, 9726 kPa, Liquid): 0.06095 ± 0.0013 W/m/K | thermal conductivity (302.73 K, 29973 kPa, Liquid): 0.06771 ± 0.0014 W/m/K | thermal conductivity (302.74 K, 29982 kPa, Liquid): 0.06772 ± 0.0014 W/m/K | thermal conductivity (302.78 K, 4430 kPa, Liquid): 0.0586 ± 0.0012 W/m/K | thermal conductivity (302.79 K, 4428 kPa, Liquid): 0.05856 ± 0.0012 W/m/K | thermal conductivity (302.79 K, 22448 kPa, Liquid): 0.06525 ± 0.0014 W/m/K | thermal conductivity (302.8 K, 22443 kPa, Liquid): 0.06527 ± 0.0014 W/m/K | thermal conductivity (302.85 K, 95 kPa, Liquid): 0.05658 ± 0.0012 W/m/K | thermal conductivity (302.86 K, 96 kPa, Liquid): 0.05645 ± 0.0012 W/m/K | thermal conductivity (303.01 K, 36 kPa, Gas): 0.01199 ± 0.00081 W/m/K | thermal conductivity (303.02 K, 38 kPa, Gas): 0.01194 ± 0.00085 W/m/K | thermal conductivity (303.03 K, 35 kPa, Gas): 0.01196 ± 0.00078 W/m/K | thermal conductivity (303.04 K, 68537 kPa, Liquid): 0.07796 ± 0.0016 W/m/K | thermal conductivity (303.04 K, 68564 kPa, Liquid): 0.07806 ± 0.0016 W/m/K | thermal conductivity (303.07 K, 15868 kPa, Liquid): 0.06292 ± 0.0013 W/m/K | thermal conductivity (303.07 K, 15869 kPa, Liquid): 0.06282 ± 0.0013 W/m/K | thermal conductivity (303.1 K, 58422 kPa, Liquid): 0.07541 ± 0.0015 W/m/K | thermal conductivity (303.1 K, 58439 kPa, Liquid): 0.07546 ± 0.0015 W/m/K | thermal conductivity (303.11 K, 68765 kPa, Liquid): 0.07805 ± 0.0016 W/m/K | thermal conductivity (303.11 K, 68772 kPa, Liquid): 0.07794 ± 0.0016 W/m/K | thermal conductivity (303.16 K, 48157 kPa, Liquid): 0.07292 ± 0.0015 W/m/K | thermal conductivity (303.17 K, 48152 kPa, Liquid): 0.07285 ± 0.0015 W/m/K | thermal conductivity (303.2 K, 15974 kPa, Liquid): 0.06276 ± 0.0013 W/m/K | thermal conductivity (303.2 K, 15979 kPa, Liquid): 0.06281 ± 0.0013 W/m/K | thermal conductivity (303.22 K, 38643 kPa, Liquid): 0.07047 ± 0.0014 W/m/K | thermal conductivity (303.23 K, 38644 kPa, Liquid): 0.0705 ± 0.0014 W/m/K | thermal conductivity (303.29 K, 9716 kPa, Liquid): 0.06072 ± 0.0013 W/m/K | thermal conductivity (303.29 K, 9741 kPa, Liquid): 0.06069 ± 0.0013 W/m/K | thermal conductivity (303.3 K, 29978 kPa, Liquid): 0.06778 ± 0.0014 W/m/K | thermal conductivity (303.3 K, 29993 kPa, Liquid): 0.06773 ± 0.0014 W/m/K
